This is an account of results in PubChem BioAssay (NCI).

Each structure is given as a SMILES string.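 Results reflect a 48-hour exposure of cells in 96-well plates to compound at five concentrations. Here, GI50 denotes the concentration required for 50% inhibition of growth. TGI denotes the concentration required for complete inhibition of growth.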

Some test systems named below: BT-549 breast; MDA-N; P388/ADR leukemia; SN12K1 renal; P388 leukemia; RXF-631 renal; LXFL 529 NSCLC.
Holding throughout (experiment): NCI tumour cell line growth inhibition, 48 h

Turning to `CCCCCCCCCCCCCCCCCCOc1ccccc1COP(=O)(O)OOCC[N+](C)(C)C`, in the assay on BT-549 breast, the GI50 was 1.32 µM and the TGI stood at 4.26 µM.

In the case of `O=C1OC(c2ccccc2Br)=N/C1=C/c1ccccc1`, the TGI with MDA-N was determined as 49.4 µM.

As for `COC(=O)Cc1c(C2C(CC(=O)OC)c3ccccc3N2C2OC(CO)C(O)C(O)C2O)[nH]c2ccccc12` (stereo not given), the TGI with MDA-N and in the assay with BT-549 breast was above 100 µM in each case.

Consider `NC(CSCSCC(N)C(=O)O)C(=O)O` (stereo not given), for which the TGI in the assay on P388/ADR leukemia is above 225 µM; in the assay on SN12K1 renal, above 225 µM; in the assay on P388 leukemia, above 71.2 µM.

As for `CC(C)(C)CI`, the TGI in the assay on RXF-631 renal and in the assay on LXFL 529 NSCLC was above 100 µM throughout.

With `C#CCNC(=O)CC[C@@H](C)[C@H]1CC[C@H]2[C@@H]3CC[C@@H]4CC(=O)CC[C@]4(C)[C@H]3CC[C@]12C`, in the assay with BT-549 breast, the GI50 is 13.7 µM and the TGI turned out to be 36.7 µM.

For `CC1OC(CO)(n2cnc3c(N)ncnc32)C(O)C1O` (stereo not given), the TGI in the assay on P388/ADR leukemia, in the assay on SN12K1 renal and in the assay with P388 leukemia was above 100 µM throughout.
